Reference: publication PMC10452181, “Synthesis and Biological Evaluation of Cyclobutane-Based β3 Integrin Antagonists: A Novel Approach to Targeting Integrins for Cancer Therapy” (Cancers, 2023)
Like-named read-outs stand apart in the source and are kept apart here.

Assays:
M14 cells = experiment: cells; assay type: cell-based, human; settings: 24 h
Method: M14 cells (4 × 10^5/mL in RPMI 1640 medium) were seeded in six-well plates and incubated at 37 °C in a 5% CO2 humidified atmosphere for 48 h. The resulting confluent monolayer was scratched with a sterile P200 pipette tip to create a gap (approximately 2 cm in length and 650 μm in width) in the centre of the well. The medium was removed, and the cells washed with Hank’s balanced salt solution (HBSS) (1 mL) and replaced with a medium containing the test antagonist. After 24 h, the cells were washed twice with HBSS and fixed with ice-pre-cooled methanol for thirty minutes at −20 °C. Following hydration with two washes in PBS, the monolayers were counterstained with Harris’s haematoxylin solution for two minutes, then washed in tap water for one minute and left to dry at room temperature. The plates were observed using an inverted microscope, and digital images captured.
The anti-αvβ3 activity of selected compounds was confirmed in a wound-healing assay (Figure 3). A number of cell lines were initially investigated for their suitability in this assay. The Sk-Mel-2 cell line which adhered well to fibronectin in the adhesion assay migrated very slowly; therefore, M14 melanoma cells which combined high levels of αvβ3 with rapid migration and low levels of proliferation over the assay period (Supplementary Figure S4) were selected.

[1] = Cytotoxicity by MTT assay, 96 h, M14; assay type: cell-based, human; settings: human
Method: (§1) Before use in cell-based assays of integrin function, the effect of compounds on cell proliferation was tested using the MTT assay to avoid adhesion results being confounded by cell death (Supplementary Table S1). The effect of compounds on cell adhesion was then initially tested at a single, nontoxic concentration to identify active antagonists for further characterisation; those displaying a promising activity in the adhesion assay were tested at a wider range of concentrations to determine the IC50 (Table 2). […] Nevertheless, it is a cost-effective initial screening method. page 4: Table S1. Cytotoxicity of compounds on the cell lines used in the functional assays (measured by MTT assay). Cells (2000 cells/well for Sk-Mel-2; 1 x 10^4 cells/mL for M14) were incubated for 96 hours at 37 ° C in a total volume of 200 μL/well (180 μL medium + 20 μ L test compound solution). After 96 hours, the medium was replaced by fresh medium containing 0.5 mg/ml (end conc.) MTT per well, incubated for 4 h then the plate processed and read as described in the main text. […] ICT9053 41 naphthyridine 1 NHSO2Mes H Ester 52.6 ± 0.6 72.7 ± 9.8 ICT9065 42 naphthyridine 1 H H Ester >100 - ICT9079 43 naphthyridine 0 NHSO2Mes H Ester ~100 - ICT9061 44 naphthyridineT 1 NHSO2Mes H Ester 46.8 ± 10.7 - […] Ester 65.4 ± 11.1 >100 […] Ester 9.6 ± 5.7 >100 […] Ester >100 - […] Ester 54.6 ± 11.0 - […] Ester >5 3.3 ± 0.8 […] ICT9028 51 pyrimidine 2 NHSO2Ph H Acid >100 - ICT9031 52 pyrimidineT 1 NHSO2Mes H Acid >100 - ICT9090 53 pyrimidineT 2 NHSO2Mes H Acid >50 - ICT9029 54 pyrimidineT 2 NHSO2Ph H Acid >100 - ICT9063 55 naphthyridine 1 NHSO2Mes H Acid 61.7 ± 2.8 - […] Acid 45.5 ± 7.9 >100 […] 42.5 ± 1.8 >50 RGDS >50 - T trans configuration of cyclobutane sidechains.

in vitro = assay type: cell-based, human; settings: human
Method: as §1

platelet aggregation = experiment: ADP-induced platelet aggregation in hirudin-treated whole blood (ex vivo); assay type: cell-based, human; settings: ADP 6.4 μM, 100 μM
Method: 2.7. Platelet Aggregation Assay
Platelet aggregation was measured in hirudin-anticoagulated whole blood from a healthy donor with ADP as agonist (end concentration 6.4 μM) using a Multiplate® impedance aggregometer (Dynabyte Informationssysteme GmbH, Munich, Germany). At 37 °C, cells were charged with 300 μL of saline, 300 μL of blood, 1 μL of compound (0.1% DMSO) and incubated for 3 min. The agonist was added and the increase in electrical impedance measured from 2 electrode pairs/cell for 6 min, transformed into arbitrary units (AU), and the area under the curve was calculated.

αIIbβ3 = target: T1, αIIbβ3 (Homo sapiens, UniProt P05106+P08514); experiment: αIIbβ3/fibrinogen purified protein binding ELISA; settings: mean ± SD
T1 construct: purchased Sigma
Method: ELISA assays were performed as previously described with minor modifications. Briefly, serial dilutions of compounds were prepared in dimethyl sulfoxide (DMSO). C8 Maxi Immuno modules (Fisher Scientific) were incubated overnight at 4 °C with 0.5 μg/well of fibrinogen (Sigma) in sterile phosphate buffered saline (PBS, 0.2 g/L KCl, 8.0 g/L NaCl, 0.2 KH2PO4, 1.15 g/L Na2HPO4, pH 7.4). All subsequent wash steps were performed using 25 mM Tris, pH 7.6, 150 mM NaCl, 1 mM MnCl2, 1 mg/mL BSA, and binding/inhibition was carried out in 25 mM Tris, pH 7.6, 150 mM NaCl, 1 mM MnCl2, 1 mM MgCl2, 1 mM CaCl2, 1 mg/mL BSA.
Wells were washed and blocked with a blocking solution (PBS, 0.1% Tween 20, 3% BSA) for 1 h at 37 °C. Compounds were added to the wells at indicated concentrations (final 0.5% DMSO) in the presence of 0.5 µg/well αIIbβ3 (Sigma) and incubated at room temp for 1 h. After 3 washes, primary anti-αIIb (1:200 dilution, Santa Cruz Biotech, Heidelberg, Germany) and antigoat–HRP (1:500 dilution, Dako, Agilent, Santa Clara, CA, USA) were added at room temp for 1 h. The wells were washed and incubated with 0.1 mg/mL tetra-methylbenzidine (Sigma) for 25 min and the reaction was stopped with 1N H2SO4 (100 μL/well). The absorbance was measured at 450 nm using a Multiscan Spectrum reader (Thermo Scientific, Thermofisher, UK) and SkanIT RE (v2.4.4.5) software. Results were plotted as percent binding vs. log concentration and IC50 values determined.

M14 = experiment: Cytotoxicity by MTT assay, 96 h, M14; assay type: cell-based, human; settings: MTT, 96 hours
Method: as §1

αvβ3 = target: T2, αvβ3 (Homo sapiens, UniProt P05106+P06756); experiment: Sk-Mel-2 cell adhesion to immobilised fibronectin (cell-binding assay, MTT readout); assay type: cell-based; settings: Sk-Mel-2 adhesion to Fn, mean ± SD
T2 construct: endogenous in cells; host or cells: SK-Mel-2 melanoma cells
Method: First, 96-well plates (Corning, VWR) were coated overnight at 4 °C with 0.5 μg/well fibronectin (Sigma). SK-Mel-2 cells were trypsinised, washed and resuspended in RPMI medium only at 10^5 cells/mL. Cells (100 µL/well) were treated with compound (DMSO final concentration 0.1%) at the indicated concentration for 4 hrs on a rotary shaker. Plates were washed (3 × PBS) and blocked with PBS/5% BSA for 2 hrs at 37 °C prior to adding the cells. Cells were incubated on the plates at 37 °C in a humidified chamber with 5% CO2 for 1 hr. The plates were washed 3× with PBS and a 200 µL/well RPMI medium containing 10% FCS added. The plates were incubated overnight at 37 °C as above. Finally, 0.5 mg/mL of 3-(4,5-dimethythiazol-2-yl)-2,5-diphenyl tetrazolium bromide (MTT) was added to each well and the plates incubated for a further 4 h. The medium was removed, and the insoluble formazan dissolved in 150 µL of DMSO. Absorbance was measured at 540 nm using a Thermo Multiskan EX (Thermofisher, UK)and Ascent Software (v2.6). Total binding was determined based on controls lacking any compounds (100% binding) in fibronectin-coated wells and uncoated wells blocked with BSA (0% binding) and corrected for background (no cells, fibronectin-coated).
As an initial test of anti-β3 activity, the ability of compounds to inhibit the adhesion of melanoma cells expressing high levels of αvβ3 and low levels of other RGD-binding integrins such as αvβ5 and α5β1 to immobilised fibronectin was evaluated.
Cells were seeded onto precoated plates in the presence or absence of putative antagonists and the number of adherent cells quantified colorimetrically.

Sk-Mel-2 = experiment: in vitro; assay type: cell-based, human
Method: as §1

T2 sequence (P06756 31-889 limits assumed): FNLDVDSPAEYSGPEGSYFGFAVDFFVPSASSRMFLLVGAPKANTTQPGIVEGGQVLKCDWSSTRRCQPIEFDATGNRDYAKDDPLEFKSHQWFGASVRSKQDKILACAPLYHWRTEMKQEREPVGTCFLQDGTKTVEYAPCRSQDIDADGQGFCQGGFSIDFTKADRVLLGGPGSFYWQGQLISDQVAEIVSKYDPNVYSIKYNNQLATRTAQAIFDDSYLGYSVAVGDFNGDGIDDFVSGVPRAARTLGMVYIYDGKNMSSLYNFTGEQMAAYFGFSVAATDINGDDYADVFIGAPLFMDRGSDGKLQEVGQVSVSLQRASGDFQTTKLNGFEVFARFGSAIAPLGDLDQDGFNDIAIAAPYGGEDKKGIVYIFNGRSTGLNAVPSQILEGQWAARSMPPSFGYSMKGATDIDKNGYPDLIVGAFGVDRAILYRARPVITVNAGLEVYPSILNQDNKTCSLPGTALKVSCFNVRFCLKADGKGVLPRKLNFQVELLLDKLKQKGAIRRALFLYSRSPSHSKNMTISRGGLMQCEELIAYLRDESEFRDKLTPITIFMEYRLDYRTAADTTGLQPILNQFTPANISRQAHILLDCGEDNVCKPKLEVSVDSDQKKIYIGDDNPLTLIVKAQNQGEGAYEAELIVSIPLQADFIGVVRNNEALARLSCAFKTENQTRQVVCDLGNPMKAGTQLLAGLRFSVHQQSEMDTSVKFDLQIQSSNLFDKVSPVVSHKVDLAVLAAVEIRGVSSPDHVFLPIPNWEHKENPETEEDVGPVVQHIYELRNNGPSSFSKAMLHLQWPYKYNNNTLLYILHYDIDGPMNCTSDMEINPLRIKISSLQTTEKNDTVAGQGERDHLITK
T2 sequence (P06756 891-1048 partner limits assumed): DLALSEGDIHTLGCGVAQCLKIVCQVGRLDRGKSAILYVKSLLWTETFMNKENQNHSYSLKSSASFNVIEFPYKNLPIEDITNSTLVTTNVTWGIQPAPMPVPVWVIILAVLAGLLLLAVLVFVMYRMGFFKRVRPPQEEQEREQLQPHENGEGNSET
T2 sequence (P05106 27-788): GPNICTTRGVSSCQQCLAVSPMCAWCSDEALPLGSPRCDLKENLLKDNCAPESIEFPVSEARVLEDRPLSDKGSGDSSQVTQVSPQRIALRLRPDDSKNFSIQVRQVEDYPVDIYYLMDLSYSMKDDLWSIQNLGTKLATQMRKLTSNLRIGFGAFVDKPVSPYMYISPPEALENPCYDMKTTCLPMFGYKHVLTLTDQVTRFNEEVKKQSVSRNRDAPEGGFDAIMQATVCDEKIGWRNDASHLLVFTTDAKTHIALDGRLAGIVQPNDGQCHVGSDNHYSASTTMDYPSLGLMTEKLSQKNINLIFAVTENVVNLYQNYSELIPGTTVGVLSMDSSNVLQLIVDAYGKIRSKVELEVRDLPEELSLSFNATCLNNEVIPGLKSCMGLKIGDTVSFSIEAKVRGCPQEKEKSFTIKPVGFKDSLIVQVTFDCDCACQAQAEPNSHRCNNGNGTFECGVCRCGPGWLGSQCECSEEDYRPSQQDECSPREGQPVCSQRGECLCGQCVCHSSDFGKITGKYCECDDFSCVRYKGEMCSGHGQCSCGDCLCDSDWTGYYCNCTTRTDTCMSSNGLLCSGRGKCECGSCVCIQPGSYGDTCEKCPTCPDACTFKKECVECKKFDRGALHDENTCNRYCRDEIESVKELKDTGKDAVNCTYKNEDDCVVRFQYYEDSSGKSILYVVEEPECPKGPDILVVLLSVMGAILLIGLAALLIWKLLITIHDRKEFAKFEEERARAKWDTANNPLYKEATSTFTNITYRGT
T1 sequence (P08514 32-887 limits assumed): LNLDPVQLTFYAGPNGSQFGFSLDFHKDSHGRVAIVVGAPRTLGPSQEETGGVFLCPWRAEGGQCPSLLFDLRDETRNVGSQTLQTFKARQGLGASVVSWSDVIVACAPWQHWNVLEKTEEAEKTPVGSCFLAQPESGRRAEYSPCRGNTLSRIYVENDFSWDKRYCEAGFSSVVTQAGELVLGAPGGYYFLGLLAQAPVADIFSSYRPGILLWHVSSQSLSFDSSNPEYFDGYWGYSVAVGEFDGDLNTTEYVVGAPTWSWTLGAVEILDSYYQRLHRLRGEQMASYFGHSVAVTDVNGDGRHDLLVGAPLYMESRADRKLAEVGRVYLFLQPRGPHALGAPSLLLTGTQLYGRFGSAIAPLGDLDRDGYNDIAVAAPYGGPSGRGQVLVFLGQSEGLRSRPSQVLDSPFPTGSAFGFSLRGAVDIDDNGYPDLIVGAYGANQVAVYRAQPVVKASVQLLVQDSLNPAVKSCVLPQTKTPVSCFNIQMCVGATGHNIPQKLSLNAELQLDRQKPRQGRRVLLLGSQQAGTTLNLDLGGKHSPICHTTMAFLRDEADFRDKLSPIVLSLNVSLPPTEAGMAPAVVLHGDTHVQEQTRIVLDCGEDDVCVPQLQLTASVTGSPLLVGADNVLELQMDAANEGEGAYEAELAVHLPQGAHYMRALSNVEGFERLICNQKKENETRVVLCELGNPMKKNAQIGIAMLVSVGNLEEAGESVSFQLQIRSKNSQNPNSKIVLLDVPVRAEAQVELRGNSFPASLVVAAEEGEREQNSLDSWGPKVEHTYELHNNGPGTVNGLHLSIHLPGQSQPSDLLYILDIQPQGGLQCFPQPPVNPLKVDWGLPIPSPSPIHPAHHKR
T1 sequence (P08514 891-1039 partner limits assumed): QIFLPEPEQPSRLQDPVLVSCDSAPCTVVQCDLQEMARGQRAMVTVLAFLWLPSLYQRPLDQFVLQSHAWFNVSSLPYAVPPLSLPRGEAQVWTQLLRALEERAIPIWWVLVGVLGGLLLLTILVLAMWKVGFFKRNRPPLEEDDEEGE
T1 sequence (P05106 27-788): as the sequence (P05106 27-788) above

**Q.** Which melting point does the source give for `COC(=O)CCNC(=O)C1CC(CCCNc2ncccn2)C1` (stereo not drawn) [ICT9003 22, 3-({3-[3-(Pyrimidin-2-ylamino)-propyl]-cyclobutanecarbonyl}-amino)-propionic acid methyl ester] here?
**A.** 94 to 95 °C

**Q.** What about the IC50 (M14 cells; Homo sapiens, M14 scratch wound, mean ± SD, read-out: Migration IC50) of the same molecule?
**A.** 4.8 ± 0.2 µM

**Q.** And the IC50 at 96 h ([1]; M14 cells, MTT, 96 hours, read-out: M14 IC50 (cytotoxicity))?
**A.** > 100 µM

**Q.** And the IC50 at 96 h (in vitro)?
**A.** > 100 µM

**Q.** With `COC(=O)[C@H](CNC(=O)[C@H]1C[C@H](CCc2ccc3c(n2)NCCC3)C1)NS(=O)(=O)c1c(C)cc(C)cc1C` [ICT9055 46, (S)-methyl 3-((1r,3r)-3-(2-(5,6,7,8-tetrahydro-1,8-naphthyridin-2-yl)ethyl)cyclobutanecarboxamido)-2-(2,4,6-trimethylphenylsulfonamido)propanoate] as the molecule, how does the “% Inhibition (Platelet Aggregation) @ 100 μM” value (platelet aggregation) read?
**A.** 5.6%

**Q.** And the IC50 (M14 cells; M14 scratch wound, mean ± SD, read-out: Migration IC50)?
**A.** < 0.1 µM

**Q.** And the “% Inhibition (αIIbβ3/Fg) @ 50 μM” value (αIIbβ3; 50 μM)?
**A.** 0 ± 9.8%

**Q.** And the IC50 (αIIbβ3; read-out: IC50 (αIIbβ3/Fg))?
**A.** > 50 µM

**Q.** And the IC50 (M14)?
**A.** > 100 µM

**Q.** What about the “Adhesion % Inhibition @ 5 μM” value (αvβ3; 5 μM) of the same molecule?
**A.** 98.4 ± 1.9%

**Q.** What about the IC50 (αvβ3) of the same molecule?
**A.** 340 ± 330 nM

**Q.** What about the IC50 (Sk-Mel-2) of the same molecule?
**A.** 9.6 ± 5.7 µM

**Q.** Which inhibition at 5 µM (αvβ3; 5 μM) does the source give for `NC(N)=NCCC[C@H](N)C(=O)NCC(=O)N[C@@H](CC(=O)O)C(=O)N[C@@H](CO)C(=O)O` [RGDS, reference compound] here?
**A.** 68.5 ± 29.1%

**Q.** And the inhibition at 50 µM (αvβ3; 50 μM)?
**A.** 45.8 ± 16.6%

**Q.** What about the IC50 at 96 h (in vitro) of the same molecule?
**A.** > 50 µM

**Q.** Which results are given for `CC(C)[C@@H]1NC(=O)[C@@H](Cc2ccccc2)NC(=O)[C@H](CC(=O)O)NC(=O)CNC(=O)[C@H](CCCNC(=N)N)NC1=O` [cRGDfV, reference compound]?
**A.** IC50 (M14 cells): 4 ± 0.07 µM; IC50 at 96 h [1]: > 50 µM; IC50 at 96 h (in vitro): 42.5 ± 1.8 µM
